Patent US20230081986A1, “METHOD AND REAGENTS TO IMPROVE NONANIMAL OCULAR TOXICITY TESTS” (Lebrun Labs LLC, priority 2021, published 2023)
Read-outs that look alike come from different tables or passages of the source.

Legend:
[1] = system: rabbit eye (cornea, iris, and conjunctiva); settings: Lebrun et al., cited from earlier work; for in vivo EPA: EPA classification, 2020 / NICEATM, 2006; for in vivo GHS: GHS classification, 2020
[2] = system: food-source rabbit eyes (cornea)
Description: All of the steps of the META test are the same as the direct test except for the dosing step. For the META, 100 µL of tear solution (saline with ascorbic acid, protein) is first added to the dosing ring, followed by the addition of 100 µL of the material to be tested.
(§1) Because of these modifications, we have updated our prediction model to include the metabolic test to identify reversible irritants or toxicity as shown in FIG. 3. For GHS (A) and EPA (B) classification systems, if the direct procedure (100 µL, washed after 1 minute exposure with 20 mL tear solution using a blunt end syringe 2-5 cm from cornea to create a laminar flow across the tissue) is negative, the metabolic result is used to confirm the negative result or identify reversible irritants or toxicity (GHS 2 or EPA II) if increased DoI is detected. […] For the GHS classification system, the NC is defined by no stromal DoI and a negative metabolic test.
NOTE: The steps of the main procedure are the same as described above. The only deviations are described below and apply to the dosing of the corneas and interpretation of results. • 1) After the pre-incubation, remove the 12 well plate(s) from the incubator and place in the hood. • 2) Using a skinny sharpie, label the wells on the lid (water or specific chemical). • 3) Place an eye on the holder and carefully place a new cloning ring in the middle of the cornea without scratching it. • 4) Remove the needle from the syringe by twisting it off. Fill the syringe with 40 mL of 1x PBS by aliquoting it from the beaker. • 5) Put the needle back on the syringe by twisting on and remove the cap protecting the needle. Place the syringe flat on a sterile piece of foil. • 6) Obtain the timer. Add 100 uL of the T8 tear solution in the center of the dosing ring. Ensure the entire surface is covered. • 7) Retrieve 100 uL of the sample and aspirate in the center of the dosing ring, ensuring the entire surface is exposed.

[3] = system: food-source rabbit eyes (cornea); remark: listed apart in the source
Description: as §1
Only food source eyes are suitable for this procedure.
3) Put the lid onto the 12 well plate(s) and place into the incubator (37° C., 5% CO2) for one hour.
3) Place an eye on the holder and carefully place a new cloning ring in the middle of the cornea without scratching it.
9) Start the timer for one minute.
10) After the one minute is over, remove the dosing ring and put in the proper container, and pick up the tissue without touching the cornea and hold it over the container for liquid waste.

[4] = system: food-source rabbit eyes (cornea); settings: for Prediction EPA: EPA prediction model from direct and metabolic results; for Prediction GHS: GHS prediction model from direct and metabolic results
Excerpt: FIG. 3 depicts the EPA and GHS prediction models. […] Meta. = Metabolic; GHS = Globally Harmonized System of Classification and Labeling of chemicals; EPA = Environmental Protection Agency; NC = Not Classified; * = Apical death of epithelium of at least 10%; must be a clear line of nuclei.
as §1

[5] = 6 minutes, 100 µL tear solution then 100 µL test material, run only where Direct was 0%
[6] = 100 µL, 1 minute exposure, tear solution wash, 24 hours organ culture

Compound | in vivo EPA [1] | in vivo GHS [1] | Meta. (Metabolic) [2, 5] | Direct (depth of injury, stromal) [3, 6] | Prediction EPA [4] | Prediction GHS [4] | Meta. (Metabolic) [2] | Direct (depth of injury, stromal) ([3]; rabbit, 1 min)
CC(=O)O [Acetic Acid (10%), Acetic Acid] | I (I (corrosive, lesions are not reversed within 21 days)) | 1 (1 (extreme and/or irreversible irritation effects that are not reversed within 21 days)) |  |  |  |  |  | 
CC(C)CCCCCOC(=O)CS [iso-Octylthioglycolate] |  |  | Neg. | 0.0% |  |  |  | 
CC(C)=O [Acetone] | II (II (damage is reversed within 21 days of exposure)) | 2A (2 A, irritation effects are reversed within 21 days) | Pos. | 0.0% | II (category II includes damage greater than 15% but less than 25% (or is positive for cell death by the metabolic test)) | 2 (Category 2 is identified by any stromal DoI up to 18% or a positive metabolic test) |  | 
CCCCCC [Hexane] |  |  | Neg. | 0.0% |  |  |  | 
CCCCCCCCOCCCCCCCC [Dioctyl ether] |  |  |  |  |  |  | Neg. | 0.0%
C[Si](C)(C)O[Si](C)(C)C [Hexamethyldisiloxane] |  |  | Neg. | 0.0% |  |  |  | 
OC1CCCC1 [Cyclopentanol] | II (II (damage is reversed within 21 days of exposure)) | 2B (2 B, within 7 days) |  | 30.4% | I (category I includes damage greater than 25%) | 1 (GHS category 1 is defined as stromal damage of 18% or greater) |  | 
CC(O)CC(C)O (stereo not shown) [2,4-Pentanediol] |  |  |  |  |  |  | Neg. | 0.0%
Cc1ccccc1 [Toluene] |  |  |  | 50.1% |  | 1 (GHS category 1 is defined as stromal damage of 18% or greater) |  | 
CCCC(C)CO (stereo not shown) [2-Methyl-1-pentanol] | III (III (damage is reversed within 7 days of exposure)) | 2B (2 B, within 7 days) |  |  | III (category III includes damage to the epithelium of the stroma up to 15%) |  |  | 5.7%
BrCCCCCCBr [1,6-Dibromohexane] |  |  | Neg. | 0.0% |  |  |  | 
C=CC(=O)OCCCCCC(C)C [iso-Octyl acrylate] |  |  |  | 0.0% |  |  |  | 
Diethylaminopropionitrile | II (II (damage is reversed within 21 days of exposure)) | 1 (1 (extreme and/or irreversible irritation effects that are not reversed within 21 days)) |  | 56.8% | II (category II includes damage greater than 15% but less than 25% (or is positive for cell death by the metabolic test)) | 1 (GHS category 1 is defined as stromal damage of 18% or greater) |  | 
O=C(Cl)c1c(Cl)cccc1Cl [2,6-Dichlorobenzoyl chloride] | II (II (damage is reversed within 21 days of exposure)) | 2A (2 A, irritation effects are reversed within 21 days) | Pos. | 0.0% | II (category II includes damage greater than 15% but less than 25% (or is positive for cell death by the metabolic test)) | 2 (Category 2 is identified by any stromal DoI up to 18% or a positive metabolic test) |  | 
CC(O)CO (stereo not shown) [Propylene glycol] |  |  |  |  |  |  | Neg. | 0.0%
CCCOCC(C)O (stereo not shown) [Propasol solvent P] | II (II (damage is reversed within 21 days of exposure)) | 2A (2 A, irritation effects are reversed within 21 days) |  | 18.3% | II (category II includes damage greater than 15% but less than 25% (or is positive for cell death by the metabolic test)) | 1 (GHS category 1 is defined as stromal damage of 18% or greater) |  | 

Compound | in vivo EPA [1] | in vivo GHS [1] | Meta. (Metabolic) [2, 5] | Direct (depth of injury, stromal) [3, 6] | Prediction EPA [4] | Prediction GHS [4] | Meta. (Metabolic) [2] | Direct (depth of injury, stromal) ([3]; rabbit, 1 min)
OCC(O)CO [Glycerol] |  |  |  |  |  |  |  | 0.0%
CCC(C)(C)C(=O)O [2,2-Dimethyl butanoic acid] | I (I (corrosive, lesions are not reversed within 21 days)) | 1 (1 (extreme and/or irreversible irritation effects that are not reversed within 21 days)) |  |  |  |  |  | 27.4%
CCOC(=O)C(C)(C)O [2-Hydroxy isobutyric acid ethyl ester] | *I^2 (I (corrosive, lesions are not reversed within 21 days)) | 1 (1 (extreme and/or irreversible irritation effects that are not reversed within 21 days)) |  |  |  |  |  | 42.3%
COCC(O)CO (stereo not shown) [3-Methoxy-1,2-propanediol] |  |  | Neg. | 0.0% |  |  |  | 
N#CCCCl [3-Chloropropionitrile] | III (III (damage is reversed within 7 days of exposure)) | 2B (2 B, within 7 days) |  | 12.0% | III (category III includes damage to the epithelium of the stroma up to 15%) | 2 (Category 2 is identified by any stromal DoI up to 18% or a positive metabolic test) |  | 
C=CC(=O)OCCO [Hydroxyethyl acrylate] |  |  |  | 100.0% |  | 1 (GHS category 1 is defined as stromal damage of 18% or greater) |  | 
CCCCCC(C)=O [Methyl amyl ketone] | III (III (damage is reversed within 7 days of exposure)) |  |  | 6.0% | III (category III includes damage to the epithelium of the stroma up to 15%) | 2 (Category 2 is identified by any stromal DoI up to 18% or a positive metabolic test) |  | 
CC(O)C(=O)O (stereo not shown) [Lactic acid] | I (I (corrosive, lesions are not reversed within 21 days)) | 1 (1 (extreme and/or irreversible irritation effects that are not reversed within 21 days)) |  |  | I (category I includes damage greater than 25%) |  |  | 100.0%
CC(C)CC(=O)CC(C)C [Di-iso-butyl ketone] |  |  |  |  |  |  |  | 0.0%
O=S(=O)(Cl)c1ccccc1 [Benzenesulphonylchloride] | *I^2 (I (corrosive, lesions are not reversed within 21 days)) | 1 (1 (extreme and/or irreversible irritation effects that are not reversed within 21 days)) |  | 52.8% | I (category I includes damage greater than 25%) | 1 (GHS category 1 is defined as stromal damage of 18% or greater) |  | 
OCCCCC(O)CO (stereo not shown) [1,2,6-Hexanetriol] |  |  | Neg. | 0.0% |  |  |  | 
CCCCCCCCBr [n-Octyl bromide] |  |  |  | 0.0% |  |  |  | 
CC(=O)CC(=O)OC(C)C [Isopropyl acetoacetate] | III (III (damage is reversed within 7 days of exposure)) | 2B (2 B, within 7 days) |  |  |  |  | Pos. | 0.0%
CCC(C)c1ccccc1 (stereo not shown) [sec-Butylbenzene] |  |  | Neg. | 0.0% |  |  |  | 
OC1CCCCC1 [Cyclohexanol] | I (I (corrosive, lesions are not reversed within 21 days)) | 1 (1 (extreme and/or irreversible irritation effects that are not reversed within 21 days)) |  | 29.6% | I (category I includes damage greater than 25%) | 1 (GHS category 1 is defined as stromal damage of 18% or greater) |  | 
COC(C)=O [Methyl acetate] | II (II (damage is reversed within 21 days of exposure)) | 2A (2 A, irritation effects are reversed within 21 days) |  |  |  |  |  | 24.0%
